Tests used:
Type in all cases: in vivo
[1] = tested on: Monocots; assay: Herbicidal activity, preemergence, monocot weeds (Table II); conditions: pre-emergence, 336 h, about 2 weeks, read-out: % control (percent of plants killed); for pest or weed control at 2241.7 g/ha: 2 lb./A.; for pest or weed control at 4483.4 g/ha: 4 lb./A.
Procedure: (§1) Using the procedure described below, diphenyl ethers were evaluated for control of the following weeds: […]
(§2) barnyardgrass (Echinochloa crusgalli) crabgrass (Digitaria spp.) nutsedge (Cyperus esculentus)
(§3) At 2 and 4 pounds per acre:
(§4) **Bermudagrass (Cynodon dactylon)
(§5) *downy brome (Bromus tectorum) foxtail (Setaria faberii)
(§6) Johnsongrass (Sorghum halepense) […]
(§7) quackgrass (Agropyron repens)
(§8) *ryegrass (Lolium perenne)
(§9) *yellow millet (Panicum miliaceum)
(§10) The following test procedure is employed. Seeds of selected crops and weeds are planted in soil in flats. For preemergence tests, the flats are treated with the test compound immediately after the planting. For postemergence tests, the seeds are allowed to germinate, and after 2 weeks the flats are treated with the test compound. The compound to be evaluated is dissolved in acetone, diluted with water, and sprayed over the flats using a carrier volume equivalent to 50 gallons per acre at the rate of application (pounds per acre, lb/A.) specified in the tables. About 2 weeks after the application of the test compound, the state of growth of the plants is observed and the phytotoxic effect of the compound is evaluated. Table II gives the average percent control achieved by the test compounds in terms of the percent of the plants which are killed by the compounds.

[2] = tested on: Dicots; assay: Herbicidal activity, preemergence, dicot weeds (Table II); conditions: pre-emergence, 336 h, about 2 weeks, read-out: % control (percent of plants killed); for pest or weed control at 2241.7 g/ha: 2 lb./A.; for pest or weed control at 4483.4 g/ha: 4 lb./A.
Procedure: as §1
(§11) bindweed (Convolvulus arvensis) curly dock (Remex crispus) velvetleaf (Abutilon theophrasti) wild mustard (Brassica haber)
(§12) At 2 and 4 pounds per acre: […]
(§13) cocklebur (Xanthium pensylvanicum)
(§14) **coffeeweed (Sesbania macrocarpa)
(§15) *curly dock (Rumex crispus)
(§16) *lambsquarters (Chenopodium album) morningglory (Ipomoea purpurea)
(§17) *pigweed (Amaranthus retroflexus)
(§18) **ragweed (Ambrosia artemisiifolia)
(§19) *smartweed (Polygonum pensylvanicum)
(§20) **tomato (Lycopersicon esculentum)
(§21) *wild carrot (Daucus carota)
(§22) *wild mustard (Brassica haber)
as §10

[3] = tested on: Monocots; assay: Herbicidal activity, postemergence, monocot weeds (Table II); conditions: post-emergence, 336 h, about 2 weeks, read-out: % control (percent of plants killed); for pest or weed control at 2241.7 g/ha: 2 lb./A.; for pest or weed control at 4483.4 g/ha: 4 lb./A.
Procedure: as §1, §2, §3, §4, §5, §6, §7, §8, §9, §10

[4] = tested on: Dicots; assay: Herbicidal activity, postemergence, dicot weeds (Table II); conditions: post-emergence, 336 h, about 2 weeks, read-out: % control (percent of plants killed); for pest or weed control at 2241.7 g/ha: 2 lb./A.; for pest or weed control at 4483.4 g/ha: 4 lb./A.
Procedure: as §1, §11, §12, §13, §14, §15, §16, §17, §18, §19, §20, §21, §22, §10

C#CCOc1cc(Oc2ccc(C(F)(F)F)cc2Cl)ccc1[N+](=O)[O-] [Example 13]
pest or weed control at 2241.7 g/ha [1]: 78%
pest or weed control at 4483.4 g/ha [1]: 76%
pest or weed control at 2241.7 g/ha [2]: 72%
pest or weed control at 4483.4 g/ha [2]: 90%
pest or weed control at 2241.7 g/ha [3]: 100%
pest or weed control at 4483.4 g/ha [3]: 77%
pest or weed control at 2241.7 g/ha [4]: 100%
pest or weed control at 4483.4 g/ha [4]: 98%

CC#CCCOc1cc(Oc2ccc(C(F)(F)F)cc2Cl)ccc1[N+](=O)[O-] [Example 14]
pest or weed control at 2241.7 g/ha [1]: 30%
pest or weed control at 4483.4 g/ha [1]: 64%
pest or weed control at 2241.7 g/ha [2]: 22%
pest or weed control at 4483.4 g/ha [2]: 78%
pest or weed control at 2241.7 g/ha [3]: 91%
pest or weed control at 4483.4 g/ha [3]: 61%
pest or weed control at 2241.7 g/ha [4]: 100%
pest or weed control at 4483.4 g/ha [4]: 94%

O=[N+]([O-])c1ccc(Oc2ccc(C(F)(F)F)cc2Cl)cc1OCCO [Example 15, 2-chloro-α,α,α-trifluoro-p-tolyl-3-(2-hydroxyethoxy)-4-nitrophenyl ether]
pest or weed control at 2241.7 g/ha [1]: 68%
pest or weed control at 4483.4 g/ha [1]: 99%
pest or weed control at 2241.7 g/ha [2]: 90%
pest or weed control at 4483.4 g/ha [2]: 100%
pest or weed control at 2241.7 g/ha [3]: 76%
pest or weed control at 4483.4 g/ha [3]: 79%
pest or weed control at 2241.7 g/ha [4]: 94%
pest or weed control at 4483.4 g/ha [4]: 99%

CCOCCOc1cc(Oc2ccc(C(F)(F)F)cc2Cl)ccc1[N+](=O)[O-] [Example 16]
pest or weed control at 2241.7 g/ha [1]: 67%
pest or weed control at 4483.4 g/ha [1]: 86%
pest or weed control at 2241.7 g/ha [2]: 75%
pest or weed control at 4483.4 g/ha [2]: 94%
pest or weed control at 2241.7 g/ha [3]: 82%
pest or weed control at 4483.4 g/ha [3]: 77%
pest or weed control at 2241.7 g/ha [4]: 94%
pest or weed control at 4483.4 g/ha [4]: 96%

CN(C)CCOc1cc(Oc2ccc(C(F)(F)F)cc2Cl)ccc1[N+](=O)[O-] [Example 17, 2-chloro-α,α,α-trifluoro-p-tolyl-3-(2-dimethylaminoethoxy)-4-nitrophenyl ether]
pest or weed control at 2241.7 g/ha [1]: 20%
pest or weed control at 4483.4 g/ha [1]: 51%
pest or weed control at 2241.7 g/ha [2]: 31%
pest or weed control at 4483.4 g/ha [2]: 84%
pest or weed control at 2241.7 g/ha [3]: 39%
pest or weed control at 4483.4 g/ha [3]: 45%
pest or weed control at 2241.7 g/ha [4]: 98%
pest or weed control at 4483.4 g/ha [4]: 89%

O=[N+]([O-])c1ccc(Oc2ccc(C(F)(F)F)cc2Cl)cc1NCCO [Example 22]
pest or weed control at 2241.7 g/ha [1]: 63%
pest or weed control at 4483.4 g/ha [1]: 72%
pest or weed control at 2241.7 g/ha [2]: 77%
pest or weed control at 4483.4 g/ha [2]: 98%
pest or weed control at 2241.7 g/ha [3]: 70%
pest or weed control at 4483.4 g/ha [3]: 60%
pest or weed control at 2241.7 g/ha [4]: 100%
pest or weed control at 4483.4 g/ha [4]: 99%

O=C(O)COc1cc(Oc2ccc(C(F)(F)F)cc2Cl)ccc1[N+](=O)[O-] [Example 23]
pest or weed control at 2241.7 g/ha [1]: 55%
pest or weed control at 4483.4 g/ha [1]: 90%
pest or weed control at 2241.7 g/ha [2]: 87%
pest or weed control at 4483.4 g/ha [2]: 64%
pest or weed control at 2241.7 g/ha [3]: 71%
pest or weed control at 4483.4 g/ha [3]: 82%
pest or weed control at 2241.7 g/ha [4]: 100%
pest or weed control at 4483.4 g/ha [4]: 100%

CCOC(=O)COc1cc(Oc2ccc(C(F)(F)F)cc2Cl)ccc1[N+](=O)[O-] [Example 24]
pest or weed control at 2241.7 g/ha [1]: 62%
pest or weed control at 4483.4 g/ha [1]: 91%
pest or weed control at 2241.7 g/ha [2]: 97%
pest or weed control at 4483.4 g/ha [2]: 68%
pest or weed control at 2241.7 g/ha [3]: 84%
pest or weed control at 4483.4 g/ha [3]: 86%
pest or weed control at 2241.7 g/ha [4]: 100%
pest or weed control at 4483.4 g/ha [4]: 99%

CC(Oc1cc(Oc2ccc(C(F)(F)F)cc2Cl)ccc1[N+](=O)[O-])C(=O)O (stereo not drawn) [Example 25, 2-Chloro-α,α,α-trifluoro-p-tolyl-3-(1-carboxyethoxy)-4-nitrophenyl ether]
pest or weed control at 2241.7 g/ha [1]: 40%
pest or weed control at 4483.4 g/ha [1]: 87%
pest or weed control at 2241.7 g/ha [2]: 93%
pest or weed control at 4483.4 g/ha [2]: 88%
pest or weed control at 2241.7 g/ha [3]: 88%
pest or weed control at 4483.4 g/ha [3]: 97%
pest or weed control at 2241.7 g/ha [4]: 100%
pest or weed control at 4483.4 g/ha [4]: 100%

Nc1cc(Oc2ccc(C(F)(F)F)cc2Cl)ccc1[N+](=O)[O-] [Example 27]
pest or weed control at 2241.7 g/ha [1]: 74%
pest or weed control at 4483.4 g/ha [1]: 76%
pest or weed control at 2241.7 g/ha [2]: 90%
pest or weed control at 4483.4 g/ha [2]: 98%
pest or weed control at 2241.7 g/ha [3]: 99%
pest or weed control at 4483.4 g/ha [3]: 82%
pest or weed control at 2241.7 g/ha [4]: 100%
pest or weed control at 4483.4 g/ha [4]: 100%
